Measurements from patent US20230130621A1, “APPLICATION OF AGENT IN PREPARATION OF MEDICINE FOR TREATING/INHIBITING PSORIASIS” (priority 2021, published 2023).

How the values were obtained:
endothelial cells = experiment: dsDNA in exosomes released by endothelial cells stimulated by cytokines; type: cell-based; conditions: cytokine stimulation; FIG. 17, 18
Source text: The dsDNA in exosomes released by endothelial cells stimulated by cytokines TNFα and IL17 was detected.

mouse = experiment: IL-1b injection into ears of the mouse; type: in vivo; conditions: injected into ears of the mouse; FIG. 26, 27
Source text: dsDNA-AIM2 finally released the cytokine IL-1b to act on the body.

Substance	dsDNA content in exosomes released by endothelial cells (endothelial cells)	psoriasis-like response in a mouse (skin phenotype, spleen, pathology) (mouse)
IL17: cytokine IL17, clinically relevant cytokine for psoriasis	significantly stimulated the dsDNA content in exosomes released by endothelial cells	
IL-1b: cytokine interleukin 1b		cause psoriasis-like skin phenotype, spleen enlargement and pathological changes
TNFα	significantly stimulated the dsDNA content in exosomes released by endothelial cells	
